According to patent US20080214537A1, “BRIDGED PHENANTHRIDINES” (CARA THERAPEUTICS, INC., priority 2007, published 2008):

Key:
[1] = target: human CB2 receptor (hCB2) (Homo sapiens, UniProt P34972); assay: cAMP assay (LANCE TR-FRET) in CHO-K1 cells expressing hCB2; format: cell-based; settings: for Emax: CHO-K1, intrinsic activity: percent maximal activation compared to full activation by CP55,940 (1 μM = 100%), read-out: hCB2 % Max Range; for EC50: CHO-K1 cells stably expressing hCB2, intracellular cAMP, NKH-477 prestimulated, average of at least three replicates
Sequence of human CB2 receptor (hCB2) (P34972 whole entry): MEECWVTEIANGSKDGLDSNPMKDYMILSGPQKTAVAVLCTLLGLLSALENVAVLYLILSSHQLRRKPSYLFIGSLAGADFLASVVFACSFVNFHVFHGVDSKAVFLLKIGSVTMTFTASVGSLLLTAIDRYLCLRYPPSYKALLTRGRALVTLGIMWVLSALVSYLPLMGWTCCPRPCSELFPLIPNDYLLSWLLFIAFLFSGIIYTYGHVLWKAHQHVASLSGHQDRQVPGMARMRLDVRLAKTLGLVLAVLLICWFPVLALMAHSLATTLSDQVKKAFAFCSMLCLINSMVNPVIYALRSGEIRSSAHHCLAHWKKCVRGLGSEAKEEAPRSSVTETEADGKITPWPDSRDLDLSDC
Protocol: (§1) The ability of compounds to act as agonists or inverse agonists at human CB2 and CB1 receptors (hCB2, hCB1, respectively) was determined by measuring changes in intracellular cAMP levels. Chinese Hamster Ovary (CHO-K1) cell lines stably expressing hCB2 (Genebank: X74328) or hCB1 (Genebank: X54937) were purchased from Euroscreen (Gosselies, Belgium).
(§2) Cell lines were grown in suspension in EX-CELL 302 CHO Serum-free medium (Sigma, catalog #14324C) supplemented with 1% Fetal Bovine Serum, glutamine and with or without non-essential amino-acids under 0.4 mg/mL G418 selection.
(§3) Receptor mediated responses were determined by measuring changes in intracellular cAMP using LANCE cAMP detection kit (catalog #AD0264, PerkinElmer, Wellesley, Mass.) based on time-resolved fluorescence resonance energy transfer (TR-FRET). Changes in cAMP were determined in cells pre-incubated with IBMX (isobutyl methylxanthine) and prestimulated with NKH-477 (a water soluble forskolin derivative, catalog #1603, Tocris, Ellisville, Mo.) to increase basal cAMP levels as detailed below.
(§4) On the day of the experiment, cells were spun at low speed for 5 min at room temperature. The supernatant was removed and cells were resuspended in stimulation buffer (Hanks Buffered Salt Solution/5 mM HEPES, containing 0.5 mM IBMX (catalog #17018, Sigma) and 0.02% BSA (PerkinElmer, catalog #CR84-100)). Cell clumps were removed by filtering through cell strainer 40 μm (BD Falcon, Discovery Labware, Bedford, Mass.) and diluted to 2×10^5 cells/mL. Antibody supplied with the LANCE cAMP immunoassay kit was then added according to the manufacturer's instructions. An aliquot of cells was taken for un-induced controls. To the remaining cells was added NKH-477 (a water soluble forskolin derivative, Tocris catalog #1603) to a final concentration of 2-8 μM. Cells were then incubated for either 25 or 30 min at room temperature prior to adding to Proxiplates containing test compounds (final DMSO concentration was less than 0.5%) with a Multidrop bulk dispenser, followed by a sixty minute incubation at room temperature. The response was stopped by addition of the detection mix supplied with the LANCE kit.
(§5) The reagents were allowed to equilibrate for three hours prior to reading on an Envision multi-mode detector (PerkinElmer). TR-FRET was measured using a 330-380 nm excitation filter, 615 and 665 nm emission filters, dichroic mirror 380 nm and Z=1 mm.
(§6) Cyclic AMP concentrations in each well were back-calculated from a cAMP standard curve run concurrently during each assay. Each plate contained 16 wells of forskolin stimulated cells and 16 wells of forskolin plus CP55,940-treated. CP55,940-treated cells were treated with CP55,940 (Tocris catalog #0949) at 1 μM and the maximal response was used as the full range (100%) standard. WIN55,212 (Tocris catalog #1038) was used as an internal standard. Concentrations of cAMP were expressed as a percent of the difference of these two groups of wells. Concentration-response data including EC50 (the concentration of compound producing 50% of the maximal response) and intrinsic activity (the percent maximal activation compared to full activation by CP55,940) were determined using a four-parameter non-linear regression algorithm (Xlfit equation 251, IDBS). Assays were performed with at least three replicates per compound and averaged results for the several compounds of the invention are shown in Table I.

Male ICR mice = assay: Acetic acid-induced writhing assay in mice; format: in vivo; settings: 10 mg/kg subcutaneous, 30 min before 0.6% acetic acid i.p.; writhes counted over 15 min
Description: 12: 525-562; Ramabadran and Bansinath (1986) Pharm. Res. 3: 263-270]. Intraperitoneal administration of dilute acetic acid solution causes a writhing behavior in mice. A writhe is defined as a contraction of the abdominal muscles accompanied by an extension of the forelimbs and elongation of the body. The number of writhes observed in the presence and absence of test compounds is counted to determine the analgesic activity of the compounds.
(§7) Male ICR mice, 20-40 grams in weight, served as experimental subjects. To determine the activity and potency of test compounds, mice were weighed and then injected with different doses of the compound solution or vehicle subcutaneously in the back of the neck and then returned to their home cages. Thirty minutes later, body temperatures were obtained using a digital rectal probe and then mice were immediately injected with 10 ml/kg of a 0.6% (v/v) acetic acid solution into the right lower quadrant of the abdomen. Mice were then placed in individual observation chambers (usually a 4000 ml beaker) with a fine layer of bedding at the bottom and the recording of the number of writhes begun immediately. The number of writhes was counted over a 15-min period starting from the time of the acetic acid injection. Raw data were analyzed using a one-way ANOVA followed by Dunnett's post-tests. For dose-response analysis, raw data were converted to % maximum possible effect (% MPE) using the formula:
% MPE=((Wc−Wv)/(0−Wv))*100
where Wc is the number of writhes in compound-treated mice and Wv is the mean number of writhes in vehicle-treated mice. The dose which elicited 50% attenuation of hypersensitivity (ED50) was determined using linear regression analysis. (Tallarida & Murray, 1987).

[2] = Body temperature (rectal probe) in writhing assay mice; format: in vivo; settings: 10 mg/kg subcutaneous; thirty minutes after dosing
Protocol: as §7, with “formula: […]” for “formula:”

[3] = target: human CB1 receptor (hCB1) (Homo sapiens, UniProt P21554); assay: cAMP assay (LANCE TR-FRET) in CHO-K1 cells expressing hCB1; format: cell-based; settings: activity on hCB1 represents inverse agonism; for Emax: CHO-K1, percent of range defined by CP55,940 (1 μM = 100%), read-out: hCB1 % Max Range; for EC50: CHO-K1 cells stably expressing hCB1, intracellular cAMP, NKH-477 prestimulated
Sequence of human CB1 receptor (hCB1) (P21554 whole entry): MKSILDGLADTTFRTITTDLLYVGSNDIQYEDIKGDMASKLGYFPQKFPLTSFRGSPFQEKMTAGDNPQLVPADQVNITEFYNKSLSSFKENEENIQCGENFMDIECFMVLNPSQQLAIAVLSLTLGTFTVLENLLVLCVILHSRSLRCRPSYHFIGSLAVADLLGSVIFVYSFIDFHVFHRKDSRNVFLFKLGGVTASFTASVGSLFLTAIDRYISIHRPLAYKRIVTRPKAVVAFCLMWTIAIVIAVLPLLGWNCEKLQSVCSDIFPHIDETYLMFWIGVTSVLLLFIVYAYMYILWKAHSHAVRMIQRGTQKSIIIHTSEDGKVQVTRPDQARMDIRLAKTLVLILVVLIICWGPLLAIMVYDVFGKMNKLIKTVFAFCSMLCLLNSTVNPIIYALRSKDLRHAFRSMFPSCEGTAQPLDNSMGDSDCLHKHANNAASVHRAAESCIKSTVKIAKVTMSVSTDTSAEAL
Protocol: as §1, §2, §3, §4, §5
as §6, with “IDBS).” for “IDBS). Assays were performed with at least three replicates per compound and averaged results for the several compounds of the invention are shown in Table I.”

O=S(=O)(c1ccc2c(c1)C1C3CCC(C3)C1C(c1ccccc1)N2)N1CCCCC1 (stereo not shown) [(3b), Bridged 6-phenyl-2-(piperidin-1-ylsulfonyl)-5,6,6a,7,8,9,10,10a-octahydrophenanthridine]
Emax [1]: 101% | EC50 [1]: 0.38 nM | % MPE (Male ICR mice): 12% | Δ BODY TEMP. (° C.): observed reduction in body temperature [2]: 0.4 °C | Emax [3]: < 40% | EC50 [3]: > 10000 nM

O=S(=O)(c1ccc2c(c1)C1C3CCC(C3)C1C(c1ccccc1)N2)N1CCOCC1 (stereo not shown) [(34), Bridged 4-(6-phenyl-5,6,6a,7,8,9,10,10a-octahydrophenanthridin-2-ylsulfonyl)morpholine]
Emax [1]: 102% | EC50 [1]: 0.56 nM | % MPE (Male ICR mice): 23% | Δ BODY TEMP. (° C.): observed reduction in body temperature [2]: 0.1 °C | Emax [3]: < 40% | EC50 [3]: > 10000 nM

CC(=O)NS(=O)(=O)c1ccc2c(c1)C1C3CCC(C3)C1C(c1ccccc1)N2 (stereo not shown) [(46), Bridged N-(6-phenyl-5,6,6a,7,8,9,10,10a-octahydrophenanthridin-2-ylsulfonyl)acetamide]
Emax [1]: 96.9% | EC50 [1]: 36.7 nM | % MPE (Male ICR mice): 41% | Δ BODY TEMP. (° C.): observed reduction in body temperature [2]: 0.2 °C | Emax [3]: < 40% | EC50 [3]: > 10000 nM

CN(C)S(=O)(=O)c1ccc2c(c1)C1CC=CC1C(c1ccccc1)N2 (stereo not shown) [(49), N,N-dimethyl-4-phenyl-3a,4,5,9b-tetrahydro-1H-cyclopenta[c]quinoline-8-sulfonamide]
Emax [1]: < 40% | EC50 [1]: > 10000 nM | Emax [3]: 61.8% | EC50 [3]: 1040 nM

CC(C)S(=O)(=O)N1c2ccc(S(=O)(=O)N(C)C)cc2C2C3CCC(C3)C2C1c1ccccc1 (stereo not shown) [(50), Bridged 5-(isopropylsulfonyl)-N,N-dimethyl-6-phenyl-5,6,6a,7,8,9,10,10a-octahydrophenanthridine-2-sulfonamide]
Emax [1]: 81.2% | EC50 [1]: 1500 nM | Emax [3]: < 40% | EC50 [3]: > 10000 nM

CC(C)S(=O)(=O)Nc1ccc2c(c1)C1C3CCC(C3)C1C(c1ccccc1)N2 (stereo not shown) [(51), Bridged N-(6-phenyl-5,6,6a,7,8,9,10,10a-octahydrophenanthridin-2-yl)propane-2-sulfonamide]
Emax [1]: 96.8% | EC50 [1]: 1.62 nM | Emax [3]: 100% | EC50 [3]: 2210 nM

CS(=O)(=O)N(c1ccc2c(c1)C1C3CCC(C3)C1C(c1ccccc1)N2)S(C)(=O)=O (stereo not shown) [(52), Bridged N-(methylsulfonyl)-N-(6-phenyl-5,6,6a,7,8,9,10,10a-octahydrophenanthridin-2-yl)methanesulfonamide]
Emax [1]: 102% | EC50 [1]: 0.63 nM | Emax [3]: < 40% | EC50 [3]: > 10000 nM

O=C(NCC1CC1)c1ccc2c(c1)C1C3CCC(C3)C1C(c1ccccc1)N2 (stereo not shown) [Compound (2d), Methylene bridged N-(cyclopropylmethyl)-6-phenyl-5,6,6a,7,8,9,10,10a-octahydrophenanthridine-2-carboxamide]
Emax [1]: 84% | EC50 [1]: 19 nM | Emax [3]: < 40% | EC50 [3]: > 10000 nM

CCCCC(=O)Nc1ccc2c(c1)C1C3CCC(C3)C1C(c1ccccc1)N2 (stereo not shown) [Compound (4d), Bridged N-(6-phenyl-5,6,6a,7,8,9,10,10a-octahydrophenanthridin-2-yl)pentanamide]
Emax [1]: 92% | EC50 [1]: 6.9 nM | Emax [3]: < 40% | EC50 [3]: > 10000 nM

CCCNC(=O)Nc1ccc2c(c1)C1C3CCC(C3)C1C(c1ccccc1)N2 (stereo not shown) [Compound (5d), Bridged 1-(6-phenyl-5,6,6a,7,8,9,10,10a-octahydrophenanthridin-2-yl)-3-propylurea]
Emax [1]: 73% | EC50 [1]: 289 nM | Emax [3]: 46% | EC50 [3]: 2150 nM
